Measurements: patent publication US20240158446A1, “CYCLIC COMPOUND HAVING SELECTIVE INHIBITORY ACTION ON KRAS OVER HRAS AND NRAS” (CHUGAI SEIYAKU KABUSHIKI KAISHA, priority 2021, published 2024)

Experiments:
[1] = target: GDP-bound KRAS wild-type protein (Homo sapiens, UniProt P01116); experiment: Binding to KRAS by surface plasmon resonance (SPR), Single Cycle Kinetics; details: SPR, Single Cycle Kinetics, GDP-bound KRAS wild-type protein; read-out: KRAS KD
[2] = target: GDP-bound NRAS wild-type protein (Homo sapiens, UniProt P01111); experiment: Binding to NRAS by surface plasmon resonance (SPR), Single Cycle Kinetics; details: SPR, GDP-bound NRAS wild-type protein vs GDP-bound KRAS wild-type protein
GDP-bound NRAS wild-type protein, sequence (P01111 whole entry): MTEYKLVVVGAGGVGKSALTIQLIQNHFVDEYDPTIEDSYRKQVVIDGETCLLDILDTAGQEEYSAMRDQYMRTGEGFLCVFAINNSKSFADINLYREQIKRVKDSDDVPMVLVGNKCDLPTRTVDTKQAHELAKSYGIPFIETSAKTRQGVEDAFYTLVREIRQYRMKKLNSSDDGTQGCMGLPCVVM

[3] = target: GDP-bound HRAS wild-type protein (Homo sapiens, UniProt P01112); experiment: Binding to HRAS by surface plasmon resonance (SPR), Single Cycle Kinetics; details: SPR, GDP-bound HRAS wild-type protein vs GDP-bound KRAS wild-type protein
GDP-bound HRAS wild-type protein, sequence (P01112 whole entry): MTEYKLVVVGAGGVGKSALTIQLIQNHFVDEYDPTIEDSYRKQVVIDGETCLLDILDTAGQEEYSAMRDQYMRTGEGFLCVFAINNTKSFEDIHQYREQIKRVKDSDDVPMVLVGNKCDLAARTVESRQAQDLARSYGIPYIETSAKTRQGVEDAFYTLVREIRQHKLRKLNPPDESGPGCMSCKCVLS

[4] = system: human lung cancer strain NCI-H441;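 also: cell proliferation inhibition after four days measured by CellTiter-Glo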

GDP-bound KRAS wild-type protein, sequence (P01116 whole entry): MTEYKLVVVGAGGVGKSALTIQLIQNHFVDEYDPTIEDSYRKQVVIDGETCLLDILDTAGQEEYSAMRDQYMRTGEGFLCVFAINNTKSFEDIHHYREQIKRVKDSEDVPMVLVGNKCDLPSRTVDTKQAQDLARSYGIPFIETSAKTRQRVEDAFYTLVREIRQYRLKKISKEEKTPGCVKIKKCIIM

Row | Structure (SMILES) | Kd [1] [nM] | NRAS/KRAS (ratio of KD value for NRAS to KD value for KRAS) [2] | HRAS/KRAS (ratio of KD value for HRAS to KD value for KRAS) [3] | IC50 [4] [nM]
1 | CCOC[C@H]1C(=O)N[C@@H]([C@@H](C)CC)C(=O)N2CCC[C@H]2C(=O)N(C)[C@H]2C/C=C\CCN(C2=O)[C@@H](CC2CCCCC2)C(=O)N(C)CC(=O)N[C@@H](CCc2ccc(C(F)(F)F)c(OC)c2)C(=O)N2C[C@@H](C)C[C@H]2C(=O)N(C)C2(CCC2)C(=O)N(C)[C@@H](C2CCCC2)C(=O)N(C)[C@H](C(=O)N(C)C)CC(=O)N1C [PP2375] | 1.1 | A (a compound having 10 or more and less than 20 is denoted as A) | B (a compound having 3 or more and less than 10 is denoted as B) | 172
2 | CCC[C@H]1C(=O)N[C@@H]([C@@H](C)CC)C(=O)N(C)CC(=O)N(C)[C@H]2C/C=C\CCN(C2=O)[C@@H](CC2CCC(F)(F)CC2)C(=O)N(C)CC(=O)N[C@@H](CCc2ccc(C(F)(F)F)c(OC)c2)C(=O)N2C[C@@H](C)C[C@H]2C(=O)N(C)C2(CCC2)C(=O)N(C)[C@@H](C2CCCC2)C(=O)N(C)[C@H](C(=O)N(C)C)CC(=O)N1C [PP2376] | 0.28 | A (a compound having 10 or more and less than 20 is denoted as A) | A (a compound having 10 or more and less than 20 is denoted as A) | 4.8
3 | CCCOC[C@H]1C(=O)N[C@@H]([C@@H](C)CC)C(=O)N(C)CC(=O)N(C)[C@H]2C/C=C\CCN(C2=O)[C@@H](CC2CCC(F)(F)CC2)C(=O)N(C)CC(=O)N[C@@H](CCc2ccc(C(F)(F)F)c(OC)c2)C(=O)N2C[C@@H](C)C[C@H]2C(=O)N(C)C2(CCC2)C(=O)N(C)[C@@H](C2CCCC2)C(=O)N(C)[C@H](C(=O)N(C)C)CC(=O)N1C [PP2377] | 0.32 | A (a compound having 10 or more and less than 20 is denoted as A) | A (a compound having 10 or more and less than 20 is denoted as A) | 5.7
4 | CCC[C@H]1C(=O)N[C@@H]([C@@H](C)CC)C(=O)N(C2CC2)CC(=O)N(C)[C@H]2C/C=C\CCN(C2=O)[C@@H](CC2CCC(F)(F)CC2)C(=O)N(C)CC(=O)N[C@@H](CCc2ccc(C(F)(F)F)c(OC)c2)C(=O)N2C[C@@H](C)C[C@H]2C(=O)N(C)C2(CCC2)C(=O)N(C)[C@@H](C2CCCC2)C(=O)N(C)[C@H](C(=O)N(C)C)CC(=O)N1C [PP2378] | 0.88 | B (a compound having 3 or more and less than 10 is denoted as B) | A (a compound having 10 or more and less than 20 is denoted as A) | 48.3
5 | CCCOC[C@H]1C(=O)N[C@@H]([C@@H](C)CC)C(=O)N(C2CC2)CC(=O)N(C)[C@H]2C/C=C\CCN(C2=O)[C@@H](CC2CCC(F)(F)CC2)C(=O)N(C)CC(=O)N[C@@H](CCc2ccc(C(F)(F)F)c(OC)c2)C(=O)N2C[C@@H](C)C[C@H]2C(=O)N(C)C2(CCC2)C(=O)N(C)[C@@H](C2CCCC2)C(=O)N(C)[C@H](C(=O)N(C)C)CC(=O)N1C [PP2379] | 0.76 | A (a compound having 10 or more and less than 20 is denoted as A) | A (a compound having 10 or more and less than 20 is denoted as A) | 2.2
6 | CCC[C@H]1C(=O)N[C@@H]([C@@H](C)CC)C(=O)N2CCC[C@H]2C(=O)N(C)[C@H]2C/C=C\CCN(C2=O)[C@@H](CC2CCC(F)(F)CC2)C(=O)N(C)CC(=O)N[C@@H](CCc2ccc(C(F)(F)F)c(OC)c2)C(=O)N2C[C@@H](C)C[C@H]2C(=O)N(C)C2(CCC2)C(=O)N(C)[C@@H](C2CCCC2)C(=O)N(C)[C@H](C(=O)N(C)C)CC(=O)N1C [PP2380] | 0.85 | A (a compound having 10 or more and less than 20 is denoted as A) | A (a compound having 10 or more and less than 20 is denoted as A) | 2.1
7 | CCCOC[C@H]1C(=O)N[C@@H]([C@@H](C)CC)C(=O)N2CCC[C@H]2C(=O)N(C)[C@H]2C/C=C\CCN(C2=O)[C@@H](CC2CCC(F)(F)CC2)C(=O)N(C)CC(=O)N[C@@H](CCc2ccc(C(F)(F)F)c(OC)c2)C(=O)N2C[C@@H](C)C[C@H]2C(=O)N(C)C2(CCC2)C(=O)N(C)[C@@H](C2CCCC2)C(=O)N(C)[C@H](C(=O)N(C)C)CC(=O)N1C [PP2381] | 0.93 | A (a compound having 10 or more and less than 20 is denoted as A) | A (a compound having 10 or more and less than 20 is denoted as A) | 3.2
8 | CCC[C@H]1C(=O)N[C@@H]([C@@H](C)CC)C(=O)N(C)CC(=O)N(C)[C@H]2C/C=C\CCN(C2=O)[C@@H](Cc2ccc(C(F)(F)F)cc2)C(=O)N(C)CC(=O)N[C@@H](CCc2ccc(C(F)(F)F)c(OC)c2)C(=O)N2C[C@H](OCC)C[C@H]2C(=O)N(C)C2(CCC2)C(=O)N(C)[C@@H](C(CC)CC)C(=O)N(C)[C@H](C(=O)N(C)C)CC(=O)N1C [PP2382] | 0.12 | A (a compound having 10 or more and less than 20 is denoted as A) | A (a compound having 10 or more and less than 20 is denoted as A) | 4.6
9 | CCOC[C@H]1C(=O)N[C@@H]([C@@H](C)CC)C(=O)N(C)CC(=O)N(C)[C@H]2C/C=C\CCN(C2=O)[C@@H](Cc2ccc(C(F)(F)F)cc2)C(=O)N(C)CC(=O)N[C@@H](CCc2ccc(C(F)(F)F)c(OC)c2)C(=O)N2C[C@H](OCC)C[C@H]2C(=O)N(C)C2(CCC2)C(=O)N(C)[C@@H](C(CC)CC)C(=O)N(C)[C@H](C(=O)N(C)C)CC(=O)N1C [PP2383] | 0.12 | A (a compound having 10 or more and less than 20 is denoted as A) | A (a compound having 10 or more and less than 20 is denoted as A) | 5.2
10 | CC[C@H](C)[C@@H]1NC(=O)[C@H](COC)N(C)C(=O)C[C@@H](C(=O)N(C)C)N(C)C(=O)[C@H](C2CCCC2)N(C)C(=O)C2(CC(C)(C)C2)NC(=O)[C@@H]2C[C@H](C)CN2C(=O)[C@H](CCc2ccc(C(F)(F)F)c(OC)c2)NC(=O)CN(C)C(=O)[C@H](Cc2ccc(C)cc2)N2CC/C=C\C[C@@H](C2=O)N(C)C(=O)CN(C)C1=O [PP2385] | 0.12 | A (a compound having 10 or more and less than 20 is denoted as A) | B (a compound having 3 or more and less than 10 is denoted as B) | 7.8
11 | CC[C@H](C)[C@@H]1NC(=O)[C@H](COC)N(C)C(=O)C[C@@H](C(=O)N(C)C)N(C)C(=O)[C@H](C2CCCC2)N(C)C(=O)C2(CC(C)(C)C2)NC(=O)[C@@H]2C[C@H](C)CN2C(=O)[C@H](CCc2ccc(C(F)(F)F)c(OC)c2)NC(=O)CN(C)C(=O)[C@H](Cc2ccc(C)cc2)N2CC/C=C\C[C@@H](C2=O)N(C)C(=O)[C@@H]2C[C@H](C)CN2C1=O [PP2386] | 1.2 | A (a compound having 10 or more and less than 20 is denoted as A) | B (a compound having 3 or more and less than 10 is denoted as B) | 28.1
12 | CCC[C@H]1C(=O)N[C@@H]([C@@H](C)CC)C(=O)N2C[C@@H](OC)C[C@H]2C(=O)N(C)[C@H]2C/C=C\CCN(C2=O)[C@@H](Cc2ccc(C)cc2)C(=O)N(C)CC(=O)N[C@@H](CCc2ccc(C(F)(F)F)c(OC)c2)C(=O)N2C[C@@H](C)C[C@H]2C(=O)NC2(CC(C)(C)C2)C(=O)N(C)[C@@H](C2CCCC2)C(=O)N(C)[C@H](C(=O)N(C)C)CC(=O)N1C [PP2388] | 0.33 | A (a compound having 10 or more and less than 20 is denoted as A) | B (a compound having 3 or more and less than 10 is denoted as B) | 22.9
13 | CCO[C@@H]1C[C@H]2C(=O)NC3(CC(C)(C)C3)C(=O)N(C)[C@@H](C3CCCC3)C(=O)N(C)[C@H](C(=O)N(C)C)CC(=O)N(C)[C@@H](COC)C(=O)N[C@@H]([C@@H](C)CC)C(=O)N(C)CC(=O)N(C)[C@H]3C/C=C\CCN(C3=O)[C@@H](Cc3ccc(C)cc3)C(=O)N(C)CC(=O)N[C@@H](CCc3ccc(C(F)(F)F)c(Cl)c3)C(=O)N2C1 [PP2389] | 0.079 | A (a compound having 10 or more and less than 20 is denoted as A) | B (a compound having 3 or more and less than 10 is denoted as B) | 21.3
14 | CC[C@H](C)[C@@H]1NC(=O)[C@H](COC)N(C)C(=O)C[C@@H](C(=O)N(C)C)N(C)C(=O)[C@H](C2CCCC2)N(C)C(=O)C2(CC(C)(C)C2)NC(=O)[C@@H]2C[C@H](C)CN2C(=O)[C@H](CCc2ccc(C(F)(F)F)c(OC)c2)NC(=O)CN(C)C(=O)[C@H](Cc2ccc(C)cc2)N2CC/C=C\C[C@@H](C2=O)N(C)C(=O)[C@@H]2C[C@H](OC)CN2C1=O [PP2390] | 0.28 | A (a compound having 10 or more and less than 20 is denoted as A) | B (a compound having 3 or more and less than 10 is denoted as B) | 96.7
15 | CCO[C@@H]1C[C@H]2C(=O)NC3(CC(C)(C)C3)C(=O)N(C)[C@@H](C3CCCC3)C(=O)N(C)[C@H](C(=O)N(C)C)CC(=O)N(C)[C@@H](COC)C(=O)N[C@@H]([C@@H](C)CC)C(=O)N(C)CC(=O)N(C)[C@H]3C/C=C\CCN(C3=O)[C@@H](Cc3ccc(C)cc3)C(=O)N(C)CC(=O)N[C@@H](CCc3cc(F)c(C(F)(F)F)c(F)c3)C(=O)N2C1 [PP2391] | 0.043 | A (a compound having 10 or more and less than 20 is denoted as A) | A (a compound having 10 or more and less than 20 is denoted as A) | 8.9
